Holding throughout (experiment): NCI-60 cell line screen, 48 h
Experiment [1] concerns ACHN renal.
For experiment [2], the system named is HL-60(TB) leukemia.
Experiment [3] deals with OVCAR-3 ovarian.
Experiment [4] deals with OVCAR-4 ovarian.
For experiment [5], the system named is OVCAR-5 ovarian.
In experiment [6] the test system is OVCAR-8 ovarian.
Experiment [7] concerns SK-MEL-2 melanoma.
The subject of experiment [8] is SNB-19 CNS.
The subject of experiment [9] is UACC-62 melanoma.
For experiment [10], the system named is UO-31 renal.

The structures appear in SMILES notation.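 Where inhibition never reached the appropriate level, the endpoint shown equals the highest concentration tested. Otherwise, values were interpolated linearly from a five-concentration, 48-hour dose response in 96-well plates. Here, GI50 denotes the concentration required for 50% inhibition of growth. TGI: concentration producing complete growth inhibition.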

`O=C(c1ccc(Cl)cc1)C1OC12C(=O)Nc1ccccc12` (centres undefined): the TGI was 28.5 µM in experiment [1]; 1.58 µM in experiment [2]; > 55.7 µM in experiment [3]; 34.1 µM in [4]; 36.2 µM in [5]; 36 µM in experiment [6]. Moreover, the TGI is 22.3 µM in experiment [7], 86.7 µM in [8], 32.3 µM in experiment [9] and 29.4 µM in [10].

Turning to `O=C(Nc1ccccc1C(=O)N/N=C(\c1ccccc1)c1ccccn1)c1ccc(F)cc1`, the GI50 in experiment [1] is 0.127 µM; in [2], 0.297 µM; in [3], 0.211 µM; in experiment [4] it was 0.207 µM; in experiment [5] it was 0.671 µM; in [6], 0.31 µM. The GI50 is 7.01 µM in experiment [7], 0.502 µM in experiment [8], 0.308 µM in experiment [9] and 0.0828 µM in experiment [10]. In addition, the TGI in experiment [2] was 2.01 µM; in experiment [3] it was > 100 µM; in [4], > 100 µM; in [5] it was > 100 µM; in [6], > 100 µM; in experiment [7] it was > 100 µM. Moreover, the values for the TGI in experiment [8], in [9] and in experiment [10] were > 100 µM, 2.03 µM and 7.25 µM, respectively.

Regarding `CCCCCCCCCCCCCCCCOC(=O)c1cc(O)cc(C(=O)OCCCCCCCCCCCCCCCC)c1`, the TGI in experiment [1], in experiment [2], in experiment [3], in [4], in [5] and in experiment [6] was > 100 µM throughout. In addition, the TGI in experiment [7], in experiment [8], in experiment [9] and in [10] was > 100 µM each time.

As to `Nc1ccc2c(c1)c(N)nn2C(=O)Nc1ccc(Cc2ccccc2)cc1`, the GI50 in [1] was 3.37 µM; in experiment [2] it was 3.46 µM; in experiment [3], 12.1 µM; in [4] it was 8.29 µM; in experiment [5] it was 22.6 µM; in experiment [6], 20.2 µM. The GI50 in experiment [7] is 26.1 µM; in experiment [8] it was 13.9 µM; in [9] it was 2.9 µM; in experiment [10], 4.72 µM. The TGI in [1] was 13.7 µM; in experiment [2], 17.2 µM; in experiment [3], 28.3 µM; in [4], 24.1 µM; in experiment [5], 60.5 µM; in [6], > 100 µM. For the same molecule, the TGI is 48.5 µM in experiment [7], 27.3 µM in experiment [8], 12.6 µM in [9] and 32.6 µM in [10].

`Cc1cc(Cl)ccc1NS(=O)(=O)c1ccc(-c2cnc(C3CC3)o2)cc1`: the GI50 in experiment [1] was 0.649 µM; in experiment [2], 0.202 µM; in [3] it was 0.186 µM; in experiment [4], 2.98 µM; in experiment [5], 0.572 µM; in experiment [6] it was 0.427 µM. For the same molecule, the GI50 in experiment [7] is 0.677 µM; in [8], 0.395 µM; in experiment [9], 0.169 µM; in experiment [10] it was 0.619 µM. Also, the TGI in [1] is 20.5 µM; in experiment [2], 2.89 µM; in experiment [3], 5.41 µM; in experiment [4], 20.6 µM; in [5], 17.2 µM; in experiment [6], 15.2 µM. Besides, the TGI in experiment [7] came to 22 µM; in [8] it was 18.7 µM; in [9] it was 17.1 µM; in experiment [10], 16.9 µM.

With `Oc1ccc(Cl)cc1Cc1cc(Cl)ccc1O`, the GI50 is 3.33 µM in [1]; 2.42 µM in experiment [2]; 2.63 µM in [3]; 2.84 µM in experiment [4]; 4.79 µM in experiment [5]; 2.63 µM in [6]. Further, the GI50 in experiment [7] is 2.21 µM; in [8] it was 3.52 µM; in [9], 2.77 µM; in experiment [10], 2.06 µM. The TGI in [1] amounted to 11.3 µM; in experiment [2] it was 6.05 µM; in experiment [3], 8.35 µM; in [4] it was 11.9 µM; in experiment [5], 19.6 µM; in experiment [6], 8.97 µM. Further, the TGI in experiment [7] was found to be 5.02 µM; in [8], 15 µM; in [9], 10.5 µM; in [10], 6.48 µM.

As for `C[C@@H]1C[C@]2(C[C@@H](C)C3[C@@H](CC4(C)[C@@H]5CCC6C(C)(C)OC(=O)C=C[C@]67C[C@@]5(CC[C@]34C)OO7)O2)OC1=O` (some centres undefined), the TGI was > 100 µM in experiment [1]; > 100 µM in experiment [2]; 66.3 µM in experiment [3]; 64.4 µM in experiment [4]; > 100 µM in experiment [5]; > 100 µM in experiment [6]. Further, the TGI in experiment [7], in experiment [8], in experiment [9] and in experiment [10] was > 100 µM throughout.

For `COc1cnc2cc(C(=O)O)c3ccccc3c2c1`, the TGI in [1], in [2], in experiment [3], in experiment [4], in [5] and in experiment [6] was > 100 µM throughout. The TGI in [7], in [8], in [9] and in [10] was > 100 µM in each case.

As for `COC(OC)c1cc2c(cc1C(=O)[C@@]13CCC[C@@H]1NC(=O)O3)OCO2`, the TGI in experiment [1], in experiment [2], in experiment [3], in experiment [4], in experiment [5] and in experiment [6] was > 100 µM each time. In addition, the TGI in [7], in experiment [8], in experiment [9] and in experiment [10] was > 100 µM throughout.

For `CN1CCc2c1nc(-c1ccc([N+](=O)[O-])cc1)c1c2N(C)CC1`, the TGI in experiment [1], in experiment [2], in experiment [3], in experiment [4], in experiment [5] and in experiment [6] was > 100 µM throughout. Further, the TGI in [7], in experiment [8], in experiment [9] and in experiment [10] was > 100 µM in each case.

In the case of `Cc1nc(N)nc2ccccc12`, the TGI in [1], in experiment [2], in experiment [3], in [4], in experiment [5] and in experiment [6] was > 100 µM in each case. The TGI in [7], in [8], in experiment [9] and in experiment [10] was > 100 µM throughout.

Consider `CC1(C)CC[C@]2(C(N)=O)CC[C@]3(C)C(=CC[C@@H]4[C@@]5(C)C/C(=C/c6ccncc6)C(=O)C(C)(C)[C@@H]5CC[C@]43C)[C@@H]2C1`, for which the GI50 in experiment [1] was 2.02 µM; in experiment [2], 1.98 µM; in [3] it was 1.87 µM; in experiment [4], 3 µM; in experiment [5] it was 1.61 µM; in [6], 3.2 µM. Also, the GI50 in experiment [7] is 1.92 µM; in [8] it was 1.59 µM; in [9], 1.61 µM; in experiment [10], 1.48 µM. For the same molecule, the TGI in experiment [1] is 4.33 µM; in experiment [2], 4.59 µM; in experiment [3] it was 3.45 µM; in experiment [4], > 100 µM; in experiment [5] it was 3.16 µM; in experiment [6] it was > 100 µM. Further, the TGI was 3.97 µM in experiment [7], 3.24 µM in experiment [8], 3.34 µM in experiment [9] and 2.91 µM in experiment [10].

Turning to `COc1ccc(S(=O)(=O)N(C)CC(=O)O)cc1`, the TGI in [1], in [2], in experiment [3], in [4], in [5] and in experiment [6] was > 100 µM each time. For the same molecule, the TGI in [7], in experiment [8], in experiment [9] and in [10] was > 100 µM throughout.

As for `CC(NC(=O)c1ccccc1)(C(=O)O)C(=O)O`, the TGI in experiment [1], in experiment [2], in experiment [3], in experiment [4], in experiment [5] and in experiment [6] was > 100 µM throughout. In addition, the TGI in experiment [7], in experiment [8], in [9] and in experiment [10] was > 100 µM throughout.

These data come from PubChem BioAssay (NCI).
